Measurements taken from article PMC6921279 (Frontiers in Endocrinology, 2019).

Legend:
[1] = test system: CRF1R-mediated ERK1/2 phosphorylation; experiment: Modulation of CRF-stimulated ERK1/2 phosphorylation in COS-7 cells expressing HA-CRF1R; type: cell-based; details: wortmannin (0–100 nM), 30 min pretreatment; 100 nM CRF, 5 min
Summary of the method: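 Lysates were immunoblotted for phospho-ERK1/2 Thr202/Tyr204. Phosphorylation was quantified by densitometry as the mean of three to five independent experiments.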

EGFR Tyr845 = experiment: CRF-induced EGFR phosphorylation at Tyr845 in COS-7 cells expressing HA-CRF1R; type: cell-based; details: 100 nM wortmannin, 30 min pretreatment; 100 nM CRF, 5 min
Experimental: COS-7 cells (from the American Type Culture Collection) were cultured at 37°C in a humidified atmosphere of 95% air, 5% CO2, in DMEM supplemented with 10% FBS, 100 μg/ml streptomycin, and 100 units/ml penicillin (COS-7 growth medium). Transient transfections were performed using LipofectAMINE (Life Technologies: Gaithersburg, MD) as described previously ([27]). Cells were seeded at 8 × 10^5 cells/10-cm dish in COS-7 medium and cultured for 3 days before transfection. COS-7 cells were transfected in 5 ml/dish OptiMEM containing 10 μg/ml LipofectAMINE with empty vector, pcDNA3 encoding the HA-CRF1R or the HA-CRF1R-Δ386 mutant. […]
The protocols for measuring total and phosphorylated ERK1/2, c-Src, PYK2, Akt, and EGFR have been previously published ([28], [29]). […] The labeled bands were quantified using the Quantity One 4.6.3 software program (Bio-Rad).
Figure 6 CRF mediates EGFR phosphorylation at Tyr^845 and activation of PYK2. […] Total cell lysates were separated by SDS-PAGE and analyzed by immunoblotting with anti-p-EGFR Tyr^845 (A,B) or anti-p-PYK2 Tyr^402 (E), as described in Materials and Methods. EGFR and ERK1/2 phosphorylation were quantitated by densitometry, and mean values were plotted from three to five independent experiments. […] Src and EGFR were quantitated by densitometry, and mean values were plotted from three independent experiments. […]

COC[C@H]1OC(=O)c2coc3c2[C@@]1(C)C1=C(C3=O)[C@@H]2CCC(=O)[C@@]2(C)C[C@H]1OC(C)=O [wortmannin]
effect on CRF-stimulated ERK1/2 phosphorylation [1]: abolished CRF-stimulated ERK1/2 phosphorylation | effect on CRF-induced EGFR Tyr845 phosphorylation (EGFR Tyr845): had no effect on CRF-induced phosphorylation of EGFR at Tyr^845
